# Results taken from patent US10813944B2, “Cyclodextrins as procoagulants” (STICHTING SANQUIN BLOEDVOORZIENING, priority 2016, dated 2020).
# Key:
# [1] = system: plasma deficient in coagulation factor VIII; assay: Thrombin generation assay in plasma deficient in coagulation factor VIII; format: biochemical, human
# Description: FIG. 20: Plasma deficient in coagulation factor VIII was spiked with cyclodextrin OKL-1111 (A), OKL-1180 (B), and OKL-1187 (C) at the indicated concentrations.
# (§1) The Calibrated Automated Thrombogram® assays the generation of thrombin in clotting plasma using a microtiter plate reading fluorometer (Fluoroskan Ascent, ThermoLab systems, Helsinki, Finland) and Thrombinoscope® software (Thrombinoscope BV, Maastricht, The Netherlands). The assay was carried out as described by Hemker et al. (Pathofysiol. IIaemost. Thromb. 2003, 33, 4-15), and the Thrombinoscope® manual. Coagulation was triggered by recalcification in the presence of 1 or 5 pM recombinant human tissue factor (Innovin®, Siemens, Marburg, Germany), 4 μM phospholipids, and 417 μM fluorogenic substrate Z-Gly-Gly-Arg-AMC (Bachem, Bubendorf, Switzerland). Fluorescence was monitored using the Fluoroskan Ascent fluorometer (ThermoLabsystems, Helsinki, Finland), and the lag time, peak thrombin, velocity index and area under the curve (ETP) were calculated using the Thrombinoscope® software (Thrombinoscope BV).
# [2] = system: human plasma deficient in coagulation factor XI; assay: Thrombin generation assay in human plasma deficient in coagulation factor XI; format: biochemical
# Description: as §1
# [3] = system: normal human plasma pretreated with inhibitory antibodies against factor IX; assay: Thrombin generation in normal plasma spiked with inhibitory antibodies against factor IX; format: biochemical; settings: antibody 5F5 20 μg/ml; 1 pM TF
# Description: as §1
# (§2) Normal plasma was spiked with inhibitory antibodies against factor VIII (Sanquin, VK34, 14 μg/ml), factor IX (Sanquin, 5F5, 20 μg/ml) or factor XI (Sanquin, mix of #203 and #175, 75 μg/ml). The effect of OKL-1111 was tested in thrombin generation assay using 1 pM tissue factor (TF). This model is representative for hemophilia A, B and C patients that have developed inhibitory antibodies against plasma-derived or recombinant factor VIII or IX or XI they are treated with.
# [4] = system: plasma of a hemophilia A patient containing anti-FVIII antibodies; assay: Thrombin generation in plasma of a hemophilia A patient with anti-factor VIII antibodies; format: biochemical, human; settings: anti-FVIII antibodies 50 BU
# Description: FIG. 28: Effect of OKL-1111 (A), OKL-1180 (B) and OKL-1187 (C) on coagulation in plasma of a hemophilia A patient with anti-factor VIII antibodies. BU=Bethesda Units.
# as §1
# The patient had developed antibodies against factor VIII prior to plasma withdrawal. The plasma contained high levels of anti-FVIII antibodies (50 BU).
# Hemophilia A mice = assay: In vivo vena saphena bleeding model in hemophilia A mice
# From the text: FIG. 30: Effect of OKL-1111 and OKL-1187 on coagulation in mouse hemophilia A assay.
# All animal protocols were approved by the Institutional Animal Care and Use Committee of the University of North Carolina. C57BL6/J mice were purchased from Charles Rivers Laboratories (Willmington, Mass.). Bleeding studies were done essentially as previously described Pastoft et al. (Haemophilia 2012; 18:782-8). Mice were anesthetized with isoflurane throughout all procedures. The hair on the ventral side of both hind limbs was removed. The animals were placed supine on a temperature and ECG monitoring board. The paws were gently restrained by looping soft polyethylene tubing around them and attaching the tubing to the ECG board. The skin on the left and right ventral hind limb was incised which exposes a length of the saphenous neurovascular bundle; the bundle was covered with normal saline to prevent drying. To assess haemostasis, the right saphenous vein was transected by piercing it with a 23-G needle followed by a longitudinal incision made in the distal portion of the vessel. Blood was gently wicked away until haemostasis occurred. The clot was then removed to restart bleeding and the blood was again wicked away until haemostasis occurs again. […] Two parameters were measured: 1) the number of times that haemostasis occurs in a 30 minute period, and 2) the time required for each haemostasis. […]
# VKA plasma = assay: Thrombin generation in plasma of individuals taking vitamin K antagonists (VKA plasma); format: biochemical, human; settings: two intensities of treatment (INR); 1 pM TF
# From the text: FIG. 11: Plasma was used from individuals taking vitamin K-antagonists (VKA plasma). Two different intensities of treatment (given as INR) were available, as depicted in (A) and (B). The plasmas were subjected to thrombin generation analysis as described in the Materials and Methods section with 1 pM tissue factor (TF) as initiator of coagulation.
# as §1
# [5] = system: plasma deficient in coagulation factor IX; assay: Thrombin generation assay in plasma deficient in coagulation factor IX; format: biochemical, human
# Description: as §1
# [6] = system: normal human plasma pretreated with inhibitory antibodies against factor VIII; assay: Thrombin generation in normal plasma spiked with inhibitory antibodies against factor VIII; format: biochemical; settings: antibody VK34 14 μg/ml; 1 pM TF
# Description: as §1, §2
# [7] = system: thrombin generation in pooled normal plasma; assay: Calibrated Automated Thrombogram thrombin generation assay in pooled normal plasma; format: biochemical, human
# [8] = normal plasma, versus absence of cyclodextrin
compound,measurement,setting,value
O=C(O)CCCCCSCC1OC2OC3C(CSCCCCCC(=O)O)OC(OC4C(CSCCCCCC(=O)O)OC(OC5C(CSCCCCCC(=O)O)OC(OC6C(CSCCCCCC(=O)O)OC(OC7C(CSCCCCCC(=O)O)OC(OC8C(CSCCCCCC(=O)O)OC(OC9C(CSCCCCCC(=O)O)OC(OC1C(O)C2O)C(O)C9O)C(O)C8O)C(O)C7O)C(O)C6O)C(O)C5O)C(O)C4O)C(O)C3O (stereo not drawn) [OKL-1111],procoagulant effect in factor VIII deficient plasma,[1],stimulate coagulation significantly
same,stimulation of coagulation in factor XI deficient plasma,[2],stimulate coagulation significantly
same,thrombin generation in plasma with inhibitory antibodies against factor IX,[3],concentration-dependently stimulated thrombin generation
same,thrombin generation in hemophilia A patient plasma,[4],concentration-dependently stimulated thrombin generation
same,hemostasis compared to factor VIII alone,Hemophilia A mice; factor VIII 2.5 IU/kg plus OKL-1111 1 μmol/kg,significantly higher
same,number of clots formed over a 30 minute period,Hemophilia A mice; factor VIII 2.5 IU/kg plus OKL-1111 1 μmol/kg (designed to give 25 μM in plasma),7-9 clots
same,thrombin generation in plasma of patients using vitamin K antagonists,VKA plasma,could be improved
same,procoagulant activity in factor IX deficient plasma,[5],stimulate coagulation significantly
same,thrombin generation in plasma with inhibitory antibodies against factor VIII,[6],concentration-dependently stimulated thrombin generation
same,procoagulant effect in normal plasma,"[7]; no anticoagulant, cyclodextrin 100 μM unless otherwise indicated, 1 pM TF",very strong procoagulant effects
same,lag time,[7]; [8],considerably shorter
same,peak thrombin,[7]; [8],largely increased
